Reference: the supplement of paper PMC10331698
± gives the standard deviation of the averaged measurements.

Key:
Test in all cases: level (log10 ratio to DMSO vehicle control); higher = higher biomarker level / cell amount than vehicle control
Details in all cases: in DMSO
[1] = compound: C=CC(=O)OCC(F)(F)C(F)(F)C(F)(F)C(F)(F)C(F)(F)C(F)(F)C(F)(F)F [1H,1H-Perfluorooctyl acrylate]
Description: (§1)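 BioMAP Diversity Plus panel of 12 human primary cell co-culture systems (3C, 4H, LPS, SAg, BT, BF4T, BE3C, CASM3C, HDF3CGF, KF3CT, MyoF, Mphg). Compounds were added 1 h before stimulation and left for 24 h (MyoF 48 h; BT 72 h for soluble read-outs or 6 d for IgG). Biomarkers were read by ELISA, cytotoxicity by SRB, PBMC viability and proliferation by Alamar Blue. Each well value was divided by the mean of 8 DMSO control wells on the same plate and log10 transformed; duplicate blinded samples were tested at 4 concentrations.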

Perfluoro-1-iodohexane = compound: FC(F)(F)C(F)(F)C(F)(F)C(F)(F)C(F)(F)C(F)(F)I [Perfluoro-1-iodohexane]
Description: as §1

Perfluoroheptanoic acid = compound: O=C(O)C(F)(F)C(F)(F)C(F)(F)C(F)(F)C(F)(F)C(F)(F)F [Perfluoroheptanoic acid]
Description: as §1

[2] = compound: O=C(O)C(F)(F)C(F)(F)OC(F)(F)F [Perfluoro-3-methoxypropanoic acid]
Description: as §1

[3] = compound: O=C(O)C(F)(F)OC(F)(F)C(F)(F)OC(F)(F)C(=O)O [Perfluoro-3,6-dioxaoctane-1,8-dioic acid]
Description: as §1

[4] = compound: O=S(=O)(O)C(F)(F)C(F)(F)C(F)(F)C(F)(F)C(F)(F)C(F)(F)F [Perfluorohexanesulfonic acid]
Description: as §1

Test System: HDF3CGF:MMP-1
- level (log10) ([1]; 6700 nM): 0.013 ± 0.034
- level (log10) ([1]; 20000 nM): 0.0425 ± 0.0078
- level (log10) ([1]; 60000 nM): 0.0365 ± 0.019
- level (log10) (Perfluoro-1-iodohexane; 6700 nM): 0.0065 ± 0.0035
- level (log10) (Perfluoro-1-iodohexane; 20000 nM): -0.0075 ± 0.029
- level (log10) (Perfluoro-1-iodohexane; 60000 nM): -0.034 ± 0.017
- level (log10) (Perfluoroheptanoic acid; 6700 nM): -0.0105 ± 0.012
- level (log10) (Perfluoroheptanoic acid; 20000 nM): 0.0025 ± 0.00071
- level (log10) (Perfluoroheptanoic acid; 60000 nM): 0.0065 ± 0.005
- level (log10) ([2]; 6700 nM): -0.01 ± 0.011
- level (log10) ([2]; 20000 nM): 0 ± 0.0071
- level (log10) ([2]; 60000 nM): -0.0035 ± 0.021
- level (log10) ([3]; 6700 nM): -0.004 ± 0.013
- level (log10) ([3]; 20000 nM): -0.003 ± 0.014
- level (log10) ([3]; 60000 nM): -0.0025 ± 0.018
- level (log10) ([4]; 6700 nM): 0.001 ± 0.025
- level (log10) ([4]; 20000 nM): -0.0095 ± 0.03
- level (log10) ([4]; 60000 nM): 0.01 ± 0.028

Test System: lMphg:CD106/VCAM-1
- level (log10) ([1]; 6700 nM): -0.0115 ± 0.022
- level (log10) ([1]; 20000 nM): -0.001 ± 0.018
- level (log10) ([1]; 60000 nM): -0.0145 ± 0.037
- level (log10) (Perfluoro-1-iodohexane; 6700 nM): 0.0085 ± 0.032
- level (log10) (Perfluoro-1-iodohexane; 20000 nM): -0.0035 ± 0.018
- level (log10) (Perfluoro-1-iodohexane; 60000 nM): -0.003 ± 0.0099
- level (log10) (Perfluoroheptanoic acid; 6700 nM): -0.0115 ± 0.005
- level (log10) (Perfluoroheptanoic acid; 20000 nM): 0.001 ± 0.0014
- level (log10) (Perfluoroheptanoic acid; 60000 nM): -0.0095 ± 0.032
- level (log10) ([2]; 6700 nM): -0.0005 ± 0.035
- level (log10) ([2]; 20000 nM): -0.0035 ± 0.021
- level (log10) ([2]; 60000 nM): -0.0235 ± 0.0035
- level (log10) ([3]; 6700 nM): -0.013 ± 0.0071
- level (log10) ([3]; 20000 nM): -0.0165 ± 0.0021
- level (log10) ([3]; 60000 nM): -0.0165 ± 0.036
- level (log10) ([4]; 6700 nM): -0.011 ± 0.044
- level (log10) ([4]; 20000 nM): 0.0075 ± 0.0035
- level (log10) ([4]; 60000 nM): 0.005 ± 0.011

Test System: lMphg:CD69
- level (log10) ([1]; 6700 nM): -0.0255 ± 0.012
- level (log10) ([1]; 20000 nM): -0.016 ± 0.033
- level (log10) ([1]; 60000 nM): -0.0135 ± 0.013
- level (log10) (Perfluoro-1-iodohexane; 6700 nM): -0.031 ± 0.048
- level (log10) (Perfluoro-1-iodohexane; 20000 nM): -0.0425 ± 0.06
- level (log10) (Perfluoro-1-iodohexane; 60000 nM): -0.031 ± 0.045
- level (log10) (Perfluoroheptanoic acid; 6700 nM): -0.019 ± 0.038
- level (log10) (Perfluoroheptanoic acid; 20000 nM): -0.021 ± 0.041
- level (log10) (Perfluoroheptanoic acid; 60000 nM): -0.0205 ± 0.064
- level (log10) ([2]; 6700 nM): -0.0495 ± 0.043
- level (log10) ([2]; 20000 nM): -0.0005 ± 0.026
- level (log10) ([2]; 60000 nM): 0.017 ± 0.04
- level (log10) ([3]; 6700 nM): -0.0565 ± 0.015
- level (log10) ([3]; 20000 nM): 0 ± 0.054
- level (log10) ([3]; 60000 nM): -0.024 ± 0.098
- level (log10) ([4]; 6700 nM): -0.007 ± 0.027
- level (log10) ([4]; 20000 nM): 0.007 ± 0.04
- level (log10) ([4]; 60000 nM): -0.036 ± 0.018

Test System: CASM3C:PAI-I
- level (log10) ([1]; 6700 nM): 0 ± 0.0014
- level (log10) ([1]; 20000 nM): -0.0075 ± 0.011
- level (log10) ([1]; 60000 nM): 0.004 ± 0.0057
- level (log10) (Perfluoro-1-iodohexane; 6700 nM): -0.003 ± 0.0071
- level (log10) (Perfluoro-1-iodohexane; 20000 nM): -0.007 ± 0.0014
- level (log10) (Perfluoro-1-iodohexane; 60000 nM): -0.003 ± 0.0028
- level (log10) (Perfluoroheptanoic acid; 6700 nM): -0.0005 ± 0.018
- level (log10) (Perfluoroheptanoic acid; 20000 nM): 0.0035 ± 0.011
- level (log10) (Perfluoroheptanoic acid; 60000 nM): 0.0105 ± 0.015
- level (log10) ([2]; 6700 nM): 0.0015 ± 0.022
- level (log10) ([2]; 20000 nM): 0.004 ± 0.013
- level (log10) ([2]; 60000 nM): 0.0095 ± 0.0078
- level (log10) ([3]; 6700 nM): 0.0025 ± 0.00071
- level (log10) ([3]; 20000 nM): 0.0005 ± 0.0078
- level (log10) ([3]; 60000 nM): 0.0155 ± 0.0064
- level (log10) ([4]; 6700 nM): 0.001 ± 0.013
- level (log10) ([4]; 20000 nM): 0.002 ± 0.0028
- level (log10) ([4]; 60000 nM): 0.006

Test System: HDF3CGF:TIMP-1
- level (log10) ([1]; 6700 nM): -0.026 ± 0.05
- level (log10) ([1]; 20000 nM): -0.029 ± 0.0057
- level (log10) ([1]; 60000 nM): -0.015 ± 0.038
- level (log10) (Perfluoro-1-iodohexane; 6700 nM): -0.014 ± 0.021
- level (log10) (Perfluoro-1-iodohexane; 20000 nM): -0.017 ± 0.025
- level (log10) (Perfluoro-1-iodohexane; 60000 nM): -0.0385 ± 0.016
- level (log10) (Perfluoroheptanoic acid; 6700 nM): -0.0015 ± 0.00071
- level (log10) (Perfluoroheptanoic acid; 20000 nM): -0.0115 ± 0.0035
- level (log10) (Perfluoroheptanoic acid; 60000 nM): -0.0055 ± 0.035
- level (log10) ([2]; 6700 nM): -0.0285 ± 0.026
- level (log10) ([2]; 20000 nM): 0.0185 ± 0.005
- level (log10) ([2]; 60000 nM): 0.036 ± 0.071
- level (log10) ([3]; 6700 nM): -0.037 ± 0.0099
- level (log10) ([3]; 20000 nM): -0.009 ± 0.0028
- level (log10) ([3]; 60000 nM): 0.041 ± 0.051
- level (log10) ([4]; 6700 nM): 0.0145 ± 0.016
- level (log10) ([4]; 20000 nM): 0.049 ± 0.021
- level (log10) ([4]; 60000 nM): 0.094 ± 0.038

Test System: lMphg:IL-1alpha
- level (log10) ([1]; 6700 nM): 0.0115 ± 0.022
- level (log10) ([1]; 20000 nM): 0.002 ± 0.038
- level (log10) ([1]; 60000 nM): 0.0155 ± 0.037
- level (log10) (Perfluoro-1-iodohexane; 6700 nM): 0.008 ± 0.0057
- level (log10) (Perfluoro-1-iodohexane; 20000 nM): 0.0525 ± 0.019
- level (log10) (Perfluoro-1-iodohexane; 60000 nM): 0.027 ± 0.011
- level (log10) (Perfluoroheptanoic acid; 6700 nM): -0.0275 ± 0.042
- level (log10) (Perfluoroheptanoic acid; 20000 nM): -0.0025 ± 0.0035
- level (log10) (Perfluoroheptanoic acid; 60000 nM): 0.0145 ± 0.012
- level (log10) ([2]; 6700 nM): -0.008 ± 0.03
- level (log10) ([2]; 20000 nM): -0.0055 ± 0.033
- level (log10) ([2]; 60000 nM): 0.0115 ± 0.005
- level (log10) ([3]; 6700 nM): 0.009 ± 0.018
- level (log10) ([3]; 20000 nM): 0.001
- level (log10) ([3]; 60000 nM): 0.0015 ± 0.0035
- level (log10) ([4]; 6700 nM): 0.023 ± 0.095
- level (log10) ([4]; 20000 nM): 0.012 ± 0.047
- level (log10) ([4]; 60000 nM): 0.0305 ± 0.063

Test System: MyoF:alpha-SM Actin
- level (log10) ([1]; 6700 nM): 0.016 ± 0.0085
- level (log10) ([1]; 20000 nM): -0.0215 ± 0.032
- level (log10) ([1]; 60000 nM): -0.0185 ± 0.039
- level (log10) (Perfluoro-1-iodohexane; 6700 nM): -0.073 ± 0.021
- level (log10) (Perfluoro-1-iodohexane; 20000 nM): -0.173 ± 0.086
- level (log10) (Perfluoro-1-iodohexane; 60000 nM): -0.38 ± 0.0092
- level (log10) (Perfluoroheptanoic acid; 6700 nM): -0.028 ± 0.035
- level (log10) (Perfluoroheptanoic acid; 20000 nM): -0.0365 ± 0.022
- level (log10) (Perfluoroheptanoic acid; 60000 nM): -0.022 ± 0.024
- level (log10) ([2]; 6700 nM): 0.0015 ± 0.00071
- level (log10) ([2]; 20000 nM): 0.011 ± 0.035
- level (log10) ([2]; 60000 nM): 0.039 ± 0.0028
- level (log10) ([3]; 6700 nM): 0.001
- level (log10) ([3]; 20000 nM): -0.0125 ± 0.013
- level (log10) ([3]; 60000 nM): 0.0245 ± 0.0021
- level (log10) ([4]; 6700 nM): 0.012 ± 0.0071
- level (log10) ([4]; 20000 nM): 0.006 ± 0.021
- level (log10) ([4]; 60000 nM): 0.008 ± 0.031
